Test results: PubChem BioAssay AID330 (DTP/NCI, 2004)
Values joined by “and” are separate entries in the source; they are usually repeats but may differ in a detail not shown here. Equal values may be shown once. Inconclusive results and toxic doses are left out.

System: P388 leukemia ip, CD2F1 mice, survival T/C
Experiment: NCI In Vivo Anticancer Drug Screen. Data for tumor model P388 Leukemia (intraperitoneal) in CD2F1 (CDF1) mice
Details: endpoint: median survival time, higher = longer survival
How it was run: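 Mice carrying the transplanted tumor received test compound or vehicle. Survival was recorded in each group, and the value is the treated-group measurement divided by that of the vehicle-treated control group.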

[1] = dose: 50.0 mg/kg/injection, schedule: Q01DX009 (ip), vehicle: saline
[2] = dose: 100.0 mg/kg/injection, schedule: Q01DX009 (ip), vehicle: saline
[3] = dose: 200.0 mg/kg/injection, schedule: Q01DX009 (ip), vehicle: saline

For `CCC1=C[C@H]2CN(CCc3c([nH]c4cc(Br)ccc34)[C@@](C(=O)OC)(c3cc4c(cc3OC)N(C)[C@H]3[C@@](O)(C(=O)OC)[C@H](OC(C)=O)[C@]5(CC)C=CCN6CC[C@]43[C@@H]65)C2)C1`, the T/C (dose: 1.0 mg/kg/injection, schedule: Q01DX001 (ip), vehicle: water) was 113 % of control, the T/C (dose: 2.0 mg/kg/injection, schedule: Q01DX001 (ip), vehicle: water) was 115 % of control and the T/C (dose: 3.9 mg/kg/injection, schedule: Q01DX001 (ip), vehicle: water) was 118 % of control. For the same compound, the T/C (dose: 4.0 mg/kg/injection, schedule: Q01DX001 (ip), vehicle: water) was 122 % of control, the T/C (dose: 6.5 mg/kg/injection, schedule: Q01DX001 (ip), vehicle: water) was 119 % of control and the T/C (dose: 16.0 mg/kg/injection, schedule: Q01DX001 (ip), vehicle: water) was 153 % of control. For the same compound, the T/C (dose: 18.0 mg/kg/injection, schedule: Q01DX001 (ip), vehicle: water) was 169 % of control, the T/C (dose: 30.0 mg/kg/injection, schedule: Q01DX001 (ip), vehicle: water) was 173 % of control and the T/C (dose: 32.0 mg/kg/injection, schedule: Q01DX001 (ip), vehicle: water) was 185 % of control.

`O=C(N/N=C/C(O)C(O)C(O)C(O)C(=O)O)c1ccncc1` (stereo not given) was tested, and the T/C (dose: 50.0 mg/kg/injection, schedule: Q01DX005 (ip), vehicle: saline) was 99 % of control, the T/C (dose: 100.0 mg/kg/injection, schedule: Q01DX005 (ip), vehicle: saline) was 93 % of control and the T/C (dose: 200.0 mg/kg/injection, schedule: Q01DX005 (ip), vehicle: saline) was 100 % of control.

`NC(=O)c1ncn(C2OC(CO)C(O)C2O)c1N` (stereo not given) was tested, and the T/C [1] was 106 % of control and 109 % of control, the T/C [2] was 98 % of control and 95 % of control and the T/C [3] was 103 % of control and 108 % of control. The T/C (dose: 400.0 mg/kg/injection, schedule: Q01DX009 (ip), vehicle: saline) was 107 % of control and 87 % of control.

`O=C1CCc2cc(O)ccc21` was tested, and the T/C (dose: 25.0 mg/kg/injection, schedule: Q01DX009 (ip), vehicle: saline) was 108 % of control, the T/C [1] was 94 % of control and the T/C [2] was 98 % of control. For the same compound, the T/C [3] was 100 % of control.

In the case of `CCCCN(CCCC)CC(O)c1ccc(Br)c2ccccc12` (stereo not given), the T/C (dose: 50.0 mg/kg/injection, schedule: Q01DX005 (ip), vehicle: saline with Tween-80) was 105 % of control, the T/C (dose: 100.0 mg/kg/injection, schedule: Q01DX005 (ip), vehicle: saline with Tween-80) was 102 % of control and the T/C (dose: 200.0 mg/kg/injection, schedule: Q01DX005 (ip), vehicle: saline with Tween-80) was 104 % of control.

For `N=C1N=Nc2nc(C(C(=O)c3cccc([N+](=O)[O-])c3Cl)c3nc4n(c3O)C(=N)N=N4)c(O)n21` (stereo not given), the T/C (dose: 60.0 mg/kg/injection, schedule: Q01DX005 (ip), vehicle: saline with Tween-80) was 106 % of control, the T/C (dose: 120.0 mg/kg/injection, schedule: Q01DX005 (ip), vehicle: saline with Tween-80) was 105 % of control and the T/C (dose: 240.0 mg/kg/injection, schedule: Q01DX005 (ip), vehicle: saline with Tween-80) was 106 % of control.

In the case of `CCOC(=O)C1=C(C)NC(C)=C(C(=O)OCC)C1c1ccc(OC)c(OC)c1`, the T/C (dose: 25.0 mg/kg/injection, schedule: Q01DX009 (ip), vehicle: other) was 106 % of control, the T/C (dose: 50.0 mg/kg/injection, schedule: Q01DX009 (ip), vehicle: other) was 103 % of control and the T/C (dose: 100.0 mg/kg/injection, schedule: Q01DX009 (ip), vehicle: other) was 97 % of control. For the same compound, the T/C (dose: 200.0 mg/kg/injection, schedule: Q01DX009 (ip), vehicle: other) was 97 % of control and the T/C (dose: 400.0 mg/kg/injection, schedule: Q01DX009 (ip), vehicle: other) was 88 % of control.

In the case of `CC1CCN(C(=O)c2nc3ccccc3[nH]2)CC1`, the T/C (dose: 50.0 mg/kg/injection, schedule: Q01DX005 (ip), vehicle: Klucel (hydroxypropylcellulose) (HPC)) was 102 % of control, the T/C (dose: 100.0 mg/kg/injection, schedule: Q01DX005 (ip), vehicle: Klucel (hydroxypropylcellulose) (HPC)) was 103 % of control and the T/C (dose: 200.0 mg/kg/injection, schedule: Q01DX005 (ip), vehicle: Klucel (hydroxypropylcellulose) (HPC)) was 107 % of control.

In the case of `O=C1C=C(N2C3C4CCC(C4)C32)C(=O)C=C1c1ccccc1` (stereo not given), the T/C (dose: 100.0 mg/kg/injection, schedule: Q01DX001 (ip), vehicle: other) was 102 % of control, the T/C (dose: 200.0 mg/kg/injection, schedule: Q01DX001 (ip), vehicle: other) was 109 % of control and the T/C (dose: 400.0 mg/kg/injection, schedule: Q01DX001 (ip), vehicle: other) was 111 % of control.

For `COc1ccc(C2OC23Cc2ccccc2C3=O)cc1OC` (stereo not given), the T/C (dose: 50.0 mg/kg/injection, schedule: Q01DX009 (ip), vehicle: saline with Tween-80) was 109 % of control, the T/C (dose: 100.0 mg/kg/injection, schedule: Q01DX009 (ip), vehicle: saline with Tween-80) was 100 % of control and the T/C (dose: 200.0 mg/kg/injection, schedule: Q01DX009 (ip), vehicle: saline with Tween-80) was 88 % of control.

In the case of `COC(CCC(C)C1OC23CC(OC(=O)CC(C(C)O)OC(=O)CC(O)(O2)C(C)CC3(C)C)C1C)c1cccc(O)c1` (stereo not given), the T/C (dose: 3.12 micrograms/kg/injection, schedule: Q01DX009 (ip), vehicle: saline + Tween-80 + alcohol) was 101 % of control, the T/C (dose: 6.25 micrograms/kg/injection, schedule: Q01DX009 (ip), vehicle: saline + Tween-80 + alcohol) was 107 % of control and 109 % of control and 86 % of control and the T/C (dose: 12.5 micrograms/kg/injection, schedule: Q01DX009 (ip), vehicle: saline + Tween-80 + alcohol) was 108 % of control. The T/C (dose: 25.0 micrograms/kg/injection, schedule: Q01DX009 (ip), vehicle: saline + Tween-80 + alcohol) was 111 % of control and 117 % of control and the T/C (dose: 50.0 micrograms/kg/injection, schedule: Q01DX009 (ip), vehicle: saline + Tween-80 + alcohol) was 115 % of control and 117 % of control.
